pEC50: −log10 of the molar value.
Columns and labels:
Format in all cases: biochemical
[1] = target: T1, JAK2 (Homo sapiens, UniProt O60674); experiment: JAK kinase assay (HTRF, phosphorylation of synthetic peptide), JAK2; settings: catalytic domain, ATP at Km (4 μM); read-out: JAK2 kinase inhibitory activity (EC50)
T1 construct: All four purified enzymes contain only the catalytic domain; His (N); purchased Carna Biosciences, Inc; host or cells: baculovirus expression system
Outline: (§1)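 Catalytic-domain human JAK1 (GST-tagged, aa 850-1154) or His-tagged JAK2, baculovirus-expressed, phosphorylated 1 µM biotinylated TK peptide at Km ATP (JAK1 7 µM, 10 mM MgCl2, 50 nM SEB; JAK2 4 µM, 5 mM MgCl2) in pH 7.0 Hepes, 20-30 min RT. EDTA stop; overnight streptavidin-XL665/cryptate HTRF read.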

[2] = target: T2, TYK2 (Homo sapiens, UniProt P29597); experiment: JAK kinase assay (HTRF, phosphorylation of synthetic peptide), TYK2; settings: catalytic domain, ATP at Km (13 μM); read-out: TYK2 kinase inhibitory activity (EC50)
T2 construct: JAK1 (aa 850-1154) and TYK2 (aa 871-1187) are expressed with an N-terminally fused GST-tag; GST (N); purchased Carna Biosciences, Inc; host or cells: baculovirus expression system
T2 sequence (P29597 871-1187): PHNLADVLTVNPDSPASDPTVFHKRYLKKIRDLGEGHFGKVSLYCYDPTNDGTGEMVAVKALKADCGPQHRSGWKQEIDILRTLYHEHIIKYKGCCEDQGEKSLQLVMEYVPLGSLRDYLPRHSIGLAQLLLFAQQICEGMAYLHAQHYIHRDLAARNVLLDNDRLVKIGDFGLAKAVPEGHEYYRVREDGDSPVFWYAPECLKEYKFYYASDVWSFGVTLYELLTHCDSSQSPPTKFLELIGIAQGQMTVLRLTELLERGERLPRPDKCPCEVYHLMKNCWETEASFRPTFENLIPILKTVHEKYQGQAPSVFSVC
Outline: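 1 µM biotinylated TK peptide at Km ATP in pH 7.0 Hepes, 20-30 min RT. EDTA stop; overnight streptavidin-XL665/cryptate HTRF read.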

[3] = target: T3, JAK3 (Homo sapiens, UniProt P52333); experiment: JAK kinase assay (HTRF, phosphorylation of synthetic peptide), JAK3; settings: catalytic domain, ATP at Km (2 μM); read-out: JAK3 kinase inhibitory activity (EC50)
T3 construct: All four purified enzymes contain only the catalytic domain; His (N); purchased Carna Biosciences, Inc; host or cells: baculovirus expression system
T3 sequence (P52333 822-1111 limits assumed): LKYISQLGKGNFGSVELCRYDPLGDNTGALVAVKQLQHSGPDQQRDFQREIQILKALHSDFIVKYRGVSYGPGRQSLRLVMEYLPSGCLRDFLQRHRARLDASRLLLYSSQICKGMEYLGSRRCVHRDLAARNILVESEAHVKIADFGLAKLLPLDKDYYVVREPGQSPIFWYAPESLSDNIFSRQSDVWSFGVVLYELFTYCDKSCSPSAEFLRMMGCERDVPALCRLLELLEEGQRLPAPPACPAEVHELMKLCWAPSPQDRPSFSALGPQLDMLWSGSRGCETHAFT

[4] = target: T4, JAK1 (Homo sapiens, UniProt P23458); experiment: JAK kinase assay (HTRF, phosphorylation of synthetic peptide), JAK1; settings: catalytic domain, ATP at Km (7 μM); read-out: JAK1 kinase inhibitory activity (EC50)
T4 construct: JAK1 (aa 850-1154) and TYK2 (aa 871-1187) are expressed with an N-terminally fused GST-tag; GST (N); purchased Carna Biosciences, Inc; host or cells: baculovirus expression system
T4 sequence (P23458 850-1154): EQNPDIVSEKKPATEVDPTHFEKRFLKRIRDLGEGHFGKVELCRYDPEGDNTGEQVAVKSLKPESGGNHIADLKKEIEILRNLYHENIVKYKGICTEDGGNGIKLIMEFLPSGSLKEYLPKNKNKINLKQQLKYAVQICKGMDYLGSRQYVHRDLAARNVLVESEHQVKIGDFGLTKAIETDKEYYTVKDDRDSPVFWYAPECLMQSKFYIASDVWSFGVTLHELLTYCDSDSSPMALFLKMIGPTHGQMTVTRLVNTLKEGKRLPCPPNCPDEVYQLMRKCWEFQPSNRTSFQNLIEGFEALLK
Outline: as §1

T1 sequence (O60674 849-1124 limits assumed): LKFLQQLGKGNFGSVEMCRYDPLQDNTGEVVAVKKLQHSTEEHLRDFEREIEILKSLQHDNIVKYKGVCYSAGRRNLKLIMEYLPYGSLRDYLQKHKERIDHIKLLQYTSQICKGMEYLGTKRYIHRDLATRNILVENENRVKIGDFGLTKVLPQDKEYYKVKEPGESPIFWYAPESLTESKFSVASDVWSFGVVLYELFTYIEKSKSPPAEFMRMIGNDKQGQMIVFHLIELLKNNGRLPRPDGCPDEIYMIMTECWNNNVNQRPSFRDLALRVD

Structure (SMILES)	pEC50 [1]	pEC50 [2]	pEC50 [3]	pEC50 [4]
CN(Cc1ccccc1)S(=O)(=O)N1CCN(c2ncnc3[nH]ccc23)CC12CC2 [Example 52, 7-(7H-Pyrrolo[2,3-d]pyrimidin-4-yl)-4,7-diaza-spiro[2.5]octane-4-sulfonic acid benzyl-methyl-amide]	> 7.00	6.30 to 7.00	> 7.00	> 7.00
N#CCCNS(=O)(=O)N1CCN(c2ncnc3[nH]ccc23)CC12CC2 [Int 40]	> 7.00	< 6.30	> 7.00	> 7.00
CN(C(=O)CCC(F)(F)F)S(=O)(=O)N1CCN(c2ncnc3[nH]ccc23)CC12CC2 [Example 131, 4,4,4-trifluoro-N-methyl-N-[[5-(7H-pyrrolo[2,3-d]pyrimidin-4-yl)-5,8-diazaspiro[2.5]octan-8-yl]sulfonyl]butanamide]	> 7.00	> 7.00	6.30 to 7.00	> 7.00
CN(CC1CCCCC1)S(=O)(=O)N1CCN(c2ncnc3[nH]ccc23)CC12CC2 [Example 15, 7-(7H-Pyrrolo[2,3-d]pyrimidin-4-yl)-4,7-diaza-spiro[2.5]octane-4-sulfonic acid cyclohexylmethyl-methyl-amide]	> 7.00	6.30 to 7.00	> 7.00	> 7.00
O=S(=O)(N(CC1CCC(F)(F)CC1)CC1CCC(F)(F)CC1)N1CCN(c2ncnc3[nH]ccc23)CC12CC2 [Example 150, N,N-bis[(4,4-difluorocyclohexyl)methyl]-5-(7H-pyrrolo[2,3-d]pyrimidin-4-yl)-5,8-diazaspiro[2.5]octane-8-sulfonamide]	> 7.00	< 6.30	6.30 to 7.00	6.30 to 7.00
CN(C)S(=O)(=O)c1ccc(CN(C)S(=O)(=O)N2CCN(c3ncnc4[nH]ccc34)CC23CC3)o1 [Example 65, N-[[5-(dimethylsulfamoyl)-2-furyl]methyl]-N-methyl-5-(7H-pyrrolo[2,3-d]pyrimidin-4-yl)-5,8-diazaspiro[2.5]octane-8-sulfonamide]	> 7.00	6.30 to 7.00	6.30 to 7.00	> 7.00
CN(C1CN(C(=O)CCO)C1)S(=O)(=O)N1CCN(c2ncnc3[nH]ccc23)CC12CC2 [Example 179, N-[1-(3-hydroxypropanoyl)azetidin-3-yl]-N-methyl-5-(7H-pyrrolo[2,3-d]pyrimidin-4-yl)-5,8-diazaspiro[2.5]octane-8-sulfonamide]	> 7.00	6.30 to 7.00	6.30 to 7.00	> 7.00
CN(C1CC1)S(=O)(=O)N1CCN(c2ncnc3[nH]ccc23)CC12CC2 [Example 141, N-cyclopropyl-N-methyl-5-(7H-pyrrolo[2,3-d]pyrimidin-4-yl)-5,8-diazaspiro[2.5]octane-8-sulfonamide]	> 7.00	6.30 to 7.00	6.30 to 7.00	> 7.00
CN(C(=O)CC1CCCC1)S(=O)(=O)N1CCN(c2ncnc3[nH]ccc23)CC12CC2 [Example 133, 2-cyclopentyl-N-methyl-N-[[5-(7H-pyrrolo[2,3-d]pyrimidin-4-yl)-5,8-diazaspiro[2.5]octan-8-yl]sulfonyl]acetamide]	> 7.00	6.30 to 7.00	6.30 to 7.00	> 7.00
N#CCN(CC1CCS(=O)(=O)C1)S(=O)(=O)N1CCN(c2ncnc3[nH]ccc23)CC12CC2 (centres unmarked) [Example 166, N-(cyanomethyl)-N-[(1,1-dioxothiolan-3-yl)methyl]-5-(7H-pyrrolo[2,3-d]pyrimidin-4-yl)-5,8-diazaspiro[2.5]octane-8-sulfonamide]	> 7.00	> 7.00	> 7.00	> 7.00
COCCN(CCc1ccccc1)S(=O)(=O)N1CCN(c2ncnc3[nH]ccc23)CC12CC2 [Example 22, 7-(7H-Pyrrolo[2,3-d]pyrimidin-4-yl)-4,7-diaza-spiro[2.5]octane-4-sulfonic acid (2-methoxy-ethyl)-phenethyl-amide]	> 7.00	6.30 to 7.00	> 7.00	> 7.00
CN(C(=O)CC1CCS(=O)(=O)C1)S(=O)(=O)N1CCN(c2ncnc3[nH]ccc23)CC12CC2 (centres unmarked) [Example 138, 2-(1,1-dioxothiolan-3-yl)-N-methyl-N-[[5-(7H-pyrrolo[2,3-d]pyrimidin-4-yl)-5,8-diazaspiro[2.5]octan-8-yl]sulfonyl]acetamide]	> 7.00	< 6.30	6.30 to 7.00	> 7.00
CN(CC1CCN(C=O)C1)S(=O)(=O)N1CCN(c2ncnc3[nH]ccc23)CC12CC2 (centres unmarked) [Example 128, N-[(1-formylpyrrolidin-3-yl)methyl]-N-methyl-5-(7H-pyrrolo[2,3-d]pyrimidin-4-yl)-5,8-diazaspiro[2.5]octane-8-sulfonamide]	> 7.00	< 6.30	> 7.00	> 7.00

The remaining lines, values ahead:

pEC50 [1]	pEC50 [2]	pEC50 [3]	pEC50 [4]	Structure (SMILES)
> 7.00	< 6.30	> 7.00	> 7.00	CCN(CC1CCC(F)(F)CC1)S(=O)(=O)N1CCN(c2ncnc3[nH]ccc23)CC12CC2 [Example 149, N-[(4,4-difluorocyclohexyl)methyl]-N-ethyl-5-(7H-pyrrolo[2,3-d]pyrimidin-4-yl)-5,8-diazaspiro[2.5]octane-8-sulfonamide]
> 7.00	6.30 to 7.00	> 7.00	> 7.00	CC(=O)N(CC1CCS(=O)(=O)C1)S(=O)(=O)N1CCN(c2ncnc3[nH]ccc23)CC12CC2 (centres unmarked) [Example 172, N-[(1,1-dioxothiolan-3-yl)methyl]-N-[[5-(7H-pyrrolo[2,3-d]pyrimidin-4-yl)-5,8-diazaspiro[2.5]octan-8-yl]sulfonyl]acetamide]
> 7.00	> 7.00	> 7.00	> 7.00	CN(CC1CCS(=O)(=O)CC1)S(=O)(=O)N1CCN(c2ncnc3[nH]ccc23)CC12CC2 [Example 168, N-[(1,1-dioxothian-4-yl)methyl]-N-methyl-5-(7H-pyrrolo[2,3-d]pyrimidin-4-yl)-5,8-diazaspiro[2.5]octane-8-sulfonamide]
> 7.00	< 6.30	6.30 to 7.00	> 7.00	CC(C)N(C)S(=O)(=O)N1CCN(c2ncnc3[nH]ccc23)CC12CC2 [Example 94, N-isopropyl-N-methyl-5-(7H-pyrrolo[2,3-d]pyrimidin-4-yl)-5,8-diazaspiro[2.5]octane-8-sulfonamide]
> 7.00	6.30 to 7.00	> 7.00	> 7.00	CN(CC1CCN(S(=O)(=O)CCCC#N)CC1)S(=O)(=O)N1CCN(c2ncnc3[nH]ccc23)CC12CC2 [Example 159, N-[[1-(3-cyanopropylsulfonyl)-4-piperidyl]methyl]-N-methyl-5-(7H-pyrrolo[2,3-d]pyrimidin-4-yl)-5,8-diazaspiro[2.5]octane-8-sulfonamide]
> 7.00	6.30 to 7.00	> 7.00	> 7.00	COc1ccc(/C=N\S(=O)(=O)N2CCN(c3ncnc4[nH]ccc34)CC23CC3)cc1 [Int 49]
> 7.00	6.30 to 7.00	6.30 to 7.00	> 7.00	CN(CCC1CCCC1)S(=O)(=O)N1CCN(c2ncnc3[nH]ccc23)CC12CC2 [Example 74, N-(2-cyclopentylethyl)-N-methyl-5-(7H-pyrrolo[2,3-d]pyrimidin-4-yl)-5,8-diazaspiro[2.5]octane-8-sulfonamide]

From patent US9233964B2, “Sulfamide piperazine derivatives as protein tyrosine kinase inhibitors and pharmaceutical use therof” (LEO PHARMA A/S, priority 2011, dated 2016)
